According to patent US7030132B2, “Method of improving bioavailability of orally administered drugs, a method of screening for enhancers of such bioavailability and novel pharmaceutical compositions for oral delivery of drugs” (Cancer Research Ventures Limited, priority 1999, dated 2006):
Like-named read-outs stand apart in the source and are kept apart here.

What was measured:
IGROV1 parental cells = experiment: Cytotoxicity, sulphorhodamine (SRB) assay, IGROV1 parental cells; assay type: cell-based, human; details: for IC50: IGROV1 parental cells; for ratio −/+ GF120918 (IGROV1): IC50 without / with 2 μM GF120918, IGROV1
Procedure: (§1) Cytotoxicity was Determined Using the Sulphorhodamine (SRB) Assay. Cells were plated in 96-wells plates, 1500 cells/well. Cells were cultured for 48 h at 37° C. and 5% CO2 in the absence of drugs. Then, in a serial dilution from approximately 1 μM to approximately 0.05 nM drugs were added, and cells were cultured for another 5 days at 37° C. and 5% CO2 Next cells are fixated in the plate, washed, and coloured with SRB. After 20 min unbound SRB is washed away using 0.1 M acetic acid. SRB that is bound to the cells is dissolved in 10 mM Tris-HCl buffer. Using a 96-well plate reader the absorbance at 540 nm is measured. For each drug the IC50 value was determined. Results are the mean of at least 3 experiments.

T8 resistant cells = experiment: Cytotoxicity, sulphorhodamine (SRB) assay, T8 resistant (BCRP overexpressing) cells; assay type: cell-based, human; details: for IC50: T8 resistant cells; for ratio −/+ GF120918 (T8): IC50 without / with 2 μM GF120918, T8
Procedure: as §1

[1] = Effect of GF120918 on oral bioavailability of topotecan in mdr1a/1b (-/-) mice; assay type: in vivo; details: topotecan 1 mg/kg oral, GF120918 50 mg/kg oral 15 min prior, plasma
Source text: The tests with mice assessed the bioavailability of the drug in mdr1a/1b double knock out mice in the presence and the absence of a BCRP inhibitor. The bioavailability tests can also be carried out with either MRP and/or P-gp knock out mice thus enabling assessment of whether any effect found due to the presence of the bioinhibitor is due solely to BCRP, not due to P-gp and/or MRP. Thus it can be determined whether the particular drug transported is transported using one or more transport systems. The drug to be transported can be provided with a detectable marker to assess where it is located and to be able to quantitate it. Some drugs can be detected and quantitated in plasma without use of a detectable marker. The methodology employed is analogous to that disclosed in the Lancet article discussed above and is also described in Br. J. Cancer 1997, 76: 1181–1183. The methodology is thus considered to be incorporated by reference and is considered enabled to a person skilled in the art. […]
GF120918 was suspended in a hydroxypropylmethylcellulose (10 g/l): Tween 80 (2% v/v): H2O (0.5:1:98.5 v/v/v) formulation for oral administration, at 5 mg.ml^−1. […] Topotecan levels in plasma were determined by HPLC analysis as described by Rosing et al., 1995, J. Chromatography, 668: 107–115, and are depicted in FIG. 1.

[2] = Clinical trial: oral topotecan with or without GF120918, plasma levels; assay type: in vivo; details: three patients, topotecan 1.0 mg/m2 oral, with or without oral GF120918 (1000 mg)
Procedure: In this example the first results of a clinical trial are shown. Three patients received topotecan orally at a dosis of 1.0 mg.m^−2. Topotecan was administered with or without GF120918 (1000 mg). For illustrative purposes, the plasma concentration vs. time is shown for one patient in FIG. 2. In FIG. 3 the average including the standard deviation is shown for all three patients.

[3] = Homo sapiens, IGROV-1, 120 h, without GF120918, 5 days drug exposure, read-out: IGROV1 IC50
[4] = + 2 μM GF120918, read-out: IGROV1 + GF120918 IC50
[5] = Homo sapiens, without GF120918, read-out: T8 IC50
[6] = + 2 μM GF120918, read-out: T8 + GF120918 IC50
[7] = without GF120918, 5 days drug exposure, read-out: IGROV1 IC50
[8] = without GF120918, read-out: T8 IC50

## CC[C@@]1(O)C(=O)OCc2c1cc1n(c2=O)Cc2c-1nc1ccccc1c2CC[Si](C)(C)C [BNP1350]
IGROV1 parental cells; [3]
  IC50: 0.44 nM
IGROV1 parental cells
  ratio −/+ GF120918 (IGROV1): 0.53
IGROV1 parental cells; [4]
  IC50: 0.84 nM
T8 resistant cells; + 2 μM GF120918
  Rf (resistance factor) T8 + GF120918: 4.1
T8 resistant cells; [5]
  IC50: 4.94 nM
T8 resistant cells
  ratio −/+ GF120918 (T8): 1.4
T8 resistant cells; [6]
  IC50: 3.45 nM
T8 resistant cells; without GF120918
  Rf (resistance factor, IC50 T8 / IC50 IGROV1): 11

## CCc1c2c(nc3ccc(O)cc13)-c1cc3c(c(=O)n1C2)COC(=O)[C@]3(O)CC [SN-38]
IGROV1 parental cells
  ratio −/+ GF120918 (IGROV1): 1.66
IGROV1 parental cells; [4]
  IC50: 1.1 nM
IGROV1 parental cells; [7]
  IC50: 1.82 nM
T8 resistant cells; + 2 μM GF120918
  Rf (resistance factor) T8 + GF120918: 6.0
T8 resistant cells
  ratio −/+ GF120918 (T8): 64.1
T8 resistant cells; [6]
  IC50: 6.54 nM
T8 resistant cells; [8]
  IC50: 419 nM
T8 resistant cells; without GF120918
  Rf (resistance factor, IC50 T8 / IC50 IGROV1): 231

## COc1cc2c(cc1OC)CN(CCc1ccc(NC(=O)c3cccc4c(=O)c5cccc(OC)c5[nH]c34)cc1)CC2 [GF120918]
IGROV1 parental cells; 2 μM GF120918, topoisomerase I drugs
  effect of GF120918 on the sensitivity of the parental cell line IGROV1: no or very little effect
T8 resistant cells; addition of 2 μM GF120918
  reversal of resistance of T8 for topoisomerase I drugs: for the greater part reversed

## CC[C@@]1(O)C(=O)OCc2c1cc1n(c2=O)Cc2c-1nc1cc3c(cc1c2CN1CCN(C)CC1)OCCO3 [GG211]
IGROV1 parental cells
  ratio −/+ GF120918 (IGROV1): 0.74
IGROV1 parental cells; [4]
  IC50: 0.87 nM
IGROV1 parental cells; [7]
  IC50: 0.64 nM
T8 resistant cells; + 2 μM GF120918
  Rf (resistance factor) T8 + GF120918: 5.3
T8 resistant cells
  ratio −/+ GF120918 (T8): 4.9
T8 resistant cells; [6]
  IC50: 4.57 nM
T8 resistant cells; [8]
  IC50: 22.4 nM
T8 resistant cells; without GF120918
  Rf (resistance factor, IC50 T8 / IC50 IGROV1): 35

## CC[C@@]1(O)C(=O)OCc2c1cc1n(c2=O)Cc2cc3c(CN(C)C)c(O)ccc3nc2-1 [topotecan]
[1]
  increase in the area under the curve (AUC) of oral topotecan: approximately 6 fold
IGROV1 parental cells; [3]
  IC50: 8.93 nM
IGROV1 parental cells
  ratio −/+ GF120918 (IGROV1): 0.97
IGROV1 parental cells; [4]
  IC50: 9.23 nM
[2]
  systemic exposure (AUC) to oral topotecan: increased systemic exposure
T8 resistant cells; + 2 μM GF120918
  Rf (resistance factor) T8 + GF120918: 4.3
T8 resistant cells; [5]
  IC50: 979 nM
T8 resistant cells
  ratio −/+ GF120918 (T8): 24.4
T8 resistant cells; [6]
  IC50: 40.2 nM
T8 resistant cells; without GF120918
  Rf (resistance factor, IC50 T8 / IC50 IGROV1): 110

## CCc1c2c(nc3ccc(OC(=O)N4CCC(N5CCCCC5)CC4)cc13)-c1cc3c(c(=O)n1C2)COC(=O)[C@]3(O)CC [CPT11, irinotecan]
IGROV1 parental cells; [3]
  IC50: 544 nM
IGROV1 parental cells
  ratio −/+ GF120918 (IGROV1): 0.84
IGROV1 parental cells; [4]
  IC50: 651 nM
T8 resistant cells; + 2 μM GF120918
  Rf (resistance factor) T8 + GF120918: 4.7
T8 resistant cells; [5]
  IC50: 34000 nM
T8 resistant cells
  ratio −/+ GF120918 (T8): 11.2
T8 resistant cells; [6]
  IC50: 3040 nM
T8 resistant cells; without GF120918
  Rf (resistance factor, IC50 T8 / IC50 IGROV1): 62

## CC[C@@]1(O)C(=O)OCc2c1cc1n(c2=O)Cc2c-1nc1cc(F)c(C)c3c1c2C(N)CC3.CS(=O)(=O)O (stereo partly shown) [DX8951f]
IGROV1 parental cells
  ratio −/+ GF120918 (IGROV1): 0.60
IGROV1 parental cells; [4]
  IC50: 0.17 nM
IGROV1 parental cells; [7]
  IC50: 0.1 nM
T8 resistant cells; + 2 μM GF120918
  Rf (resistance factor) T8 + GF120918: 2.3
T8 resistant cells
  ratio −/+ GF120918 (T8): 7.4
T8 resistant cells; [6]
  IC50: 0.39 nM
T8 resistant cells; [8]
  IC50: 2.88 nM
T8 resistant cells; without GF120918
  Rf (resistance factor, IC50 T8 / IC50 IGROV1): 29
